# Assay results reported in US8507674B2, “Quorum sensing inhibitor” (The University of Tokyo, priority 2007, dated 2013).
# Key:
# [1] = system: Burkholderia glumae; assay: Test Example 6: onset of infection on rice, test liquid sprayed after infection; assay type: in vivo; conditions: for percentage of flower clusters with score 0: score 0 = less than 0.1% diseased; for percentage of flower clusters with score 0 / percentage of flower clusters with score 1 / percentage of flower clusters with score 2 / percentage of flower clusters with score 3 / percentage of flower clusters with score 4 / percentage of flower clusters with score 5: rice, 7 days; for percentage of flower clusters with score 1: score 1 = 0.1-20% diseased; for percentage of flower clusters with score 2: score 2 = 20-40% diseased; for percentage of flower clusters with score 3: score 3 = 40-60% diseased; for percentage of flower clusters with score 4: score 4 = 60-80% diseased; for percentage of flower clusters with score 5: score 5 = 80-100% diseased
# Method: A test liquid and a culture solution for infection were prepared in the same manner as in Test Example 5, and the culture solution for infection was sprayed onto Korean rice (Milyang 23) raised in a hothouse until the flowering stage. One hour after the spraying, each test liquid (10 mL) was sprayed onto the rice. After cultivation for seven days, the onset of Burkholderia glumae infection on the rice was evaluated in the same manner as in Test Example 4. The same evaluation was conducted as the comparative test in the same manner except that water was used instead of the test liquid. Further, the same evaluation was conducted to serve as a blank using water instead of both the test liquid and the culture solution for infection.
# [2] = system: Burkholderia glumae; assay: Test Example 5: onset of infection on rice, test liquid sprayed before infection; assay type: in vivo; conditions: for percentage of flower clusters with score 0: score 0 = less than 0.1% diseased; for percentage of flower clusters with score 0 / percentage of flower clusters with score 1 / percentage of flower clusters with score 2 / percentage of flower clusters with score 3 / percentage of flower clusters with score 4 / percentage of flower clusters with score 5: rice, 7 days; for percentage of flower clusters with score 1: score 1 = 0.1-20% diseased; for percentage of flower clusters with score 2: score 2 = 20-40% diseased; for percentage of flower clusters with score 3: score 3 = 40-60% diseased; for percentage of flower clusters with score 4: score 4 = 60-80% diseased; for percentage of flower clusters with score 5: score 5 = 80-100% diseased
# Method: A dimethyl formamide solution (1,000 ppm) of Compound (1) was diluted with water to have a predetermined concentration (50, 100 or 200 μM) to prepare a test liquid. In a separate procedure, Burkholderia glumae were seeded to an LB culture medium and cultured overnight at 37° C., preparing a culture solution for infection.
# Each test liquid (10 mL) was sprayed onto Korean rice (Milyang 23) raised in a hothouse until the flowering stage. The culture solution for infection was sprayed onto the rice one hour after the application of the test liquid. After cultivation for seven days, the onset of Burkholderia glumae infection on the rice was evaluated.
# The evaluation was conducted by picking an ear from each plant, making a total of three ears. In each flower cluster (grain), the percentage of the portion that suffered from the onset of disease (i.e., the portion that turned brown) caused by the toxoflavin produced by Burkholderia glumae was visually observed and scored based on the scale shown below. The percentage of the total flower clusters was obtained and scored to indicate the onset of the disease.
# The percentage that suffered from the onset of disease:
# Not less than 0.1% and not greater than 20%: 1
# Not less than 20% and not greater than 40%: 2
# Not less than 40% and not greater than 60%: 3
# Not less than 60% and not greater than 80%: 4
# In this evaluation, three flower clusters (grains) having the same conditions were prepared, and reproducibility was confirmed by repeating the same evaluation three times. The same evaluation was also conducted as a comparative test except that water was used instead of the test liquid. Further, the same evaluation was conducted to serve as a blank except that water was used instead of both the test liquid and the culture solution for infection.
# [3] = system: Burkholderia glumae; assay: Test Example 3: number of microorganisms versus culturing time and concentration; assay type: cell-based; conditions: 80 μM or 100 μM, 20 to 40 hours culturing, FIG. 2
# Method: Burkholderia glumae was inoculated into an LB culture medium, and cultured at 37° C. overnight. The thus-obtained culture solution was subjected to bacterial collection using a centrifuge, washed with an LB culture medium twice using a fresh LB culture medium each time. To the bacterial cell a fresh LB culture medium was added to prepare a culture suspension of about 3.0×10^5 cfu/mL. Thereafter, Compound (1) produced in Production Example 1 was added to the culture suspension in such a manner that its final concentration became a predetermined value (i.e., 0 μM, 80 μM, or 100 μM), followed by shake culturing for 40 hours. The number of microorganisms in the culture solution after a predetermined time (i.e., 20, 24, 28, 32, 36 and 40 hours) was obtained by the following procedure. Specifically, a portion of the culture solution was removed and diluted 1,000-fold, and then seeded to an LB culture medium agar plate. The number of colonies was counted to obtain the number of microorganisms.
# [4] = system: Burkholderia glumae; assay: Test Example 4: amount of toxoflavin produced in culture solution; assay type: cell-based; conditions: 0, 20, 40, 60, 80 or 100 μM, shake culturing 20 hours, FIG. 3
# Method: Burkholderia glumae was inoculated into an LB culture medium, and cultured at 37° C. overnight. The thus-obtained culture solution was subjected to bacterial collection using a centrifuge, and washed with an LB culture medium twice using a fresh LB culture medium each time. To the bacterial cell a fresh LB culture medium was added, and then Compound (1) produced in Production Example 1 was added thereto in such a manner that its final concentration became a predetermined value (i.e., 0, 20, 40, 60, 80 or 100 μM), followed by shake culturing for 20 hours. The amount of toxoflavin produced by the bacterial cell in the culture solution was obtained by the following procedure.
# Each culture solution was filtered by 0.22-μm membrane filter, and 1 mL of the filtrate was isolated. One mL of chloroform was added to the filtrate, followed by extraction. The thus-obtained chloroform layer was concentrated under reduced pressure, and an 80% (V/V) an aqueous methanol solution was added to and dissolved in the residue. The absorbance (at 260 nm) of the solution was measured, and the toxin doses were calculated from the calibration curve, which was obtained using a chemically synthesized standard toxin.
# [5] = 50 μM sprayed 1 h after infection
# [6] = 100 μM sprayed 1 h after infection
# [7] = 200 μM sprayed 1 h after infection
# [8] = 50 μM sprayed 1 h before infection
# [9] = 100 μM sprayed 1 h before infection
# [10] = 200 μM sprayed 1 h before infection
compound,measurement,setting,value
"CCCc1cc(=O)n2cccc(O)c2n1 [Compound (1), 2-n-propyl-9-hydroxy-4H-pyrid[1,2-a]pyrimidin-4-one]",percentage of flower clusters with score 0,[1]; [5],88%
same,percentage of flower clusters with score 0,[1]; [6],85%
same,percentage of flower clusters with score 0,[1]; [7],89%
same,percentage of flower clusters with score 1,[1]; [5],2%
same,percentage of flower clusters with score 1,[1]; [6],5%
same,percentage of flower clusters with score 1,[1]; [7],3%
same,percentage of flower clusters with score 2,[1]; [5],4%
same,percentage of flower clusters with score 2,[1]; [6],3%
same,percentage of flower clusters with score 2,[1]; [7],3%
same,percentage of flower clusters with score 3,[1]; [5],2%
same,percentage of flower clusters with score 3,[1]; [6],3%
same,percentage of flower clusters with score 3,[1]; [7],2%
same,percentage of flower clusters with score 4,[1]; [5],2%
same,percentage of flower clusters with score 4,[1]; [6],2%
same,percentage of flower clusters with score 4,[1]; [7],2%
same,percentage of flower clusters with score 5,[1]; [5],2%
same,percentage of flower clusters with score 5,[1]; [6],2%
same,percentage of flower clusters with score 5,[1]; [7],1%
same,onset of Burkholderia glumae on rice,"[1]; test liquid 50, 100 or 200 μM sprayed after the culture solution for infection",prevented
same,percentage of flower clusters with score 0,[2]; [8],68%
same,percentage of flower clusters with score 0,[2]; [9],80%
same,percentage of flower clusters with score 0,[2]; [10],82%
same,percentage of flower clusters with score 1,[2]; [8],7%
same,percentage of flower clusters with score 1,[2]; [9],6%
same,percentage of flower clusters with score 1,[2]; [10],6%
same,percentage of flower clusters with score 2,[2]; [8],6%
same,percentage of flower clusters with score 2,[2]; [9],4%
same,percentage of flower clusters with score 2,[2]; [10],6%
same,percentage of flower clusters with score 3,[2]; [8],7%
same,percentage of flower clusters with score 3,[2]; [9],3%
same,percentage of flower clusters with score 3,[2]; [10],2%
same,percentage of flower clusters with score 4,[2]; [8],6%
same,percentage of flower clusters with score 4,[2]; [9],3%
same,percentage of flower clusters with score 4,[2]; [10],2%
same,percentage of flower clusters with score 5,[2]; [8],6%
same,percentage of flower clusters with score 5,[2]; [9],4%
same,percentage of flower clusters with score 5,[2]; [10],2%
same,onset of Burkholderia glumae on rice,"[2]; test liquid 50, 100 or 200 μM sprayed before the culture solution for infection",prevented
same,control effect against Burkholderia glumae (number of microorganisms),[3],excellent control effect
same,toxin doses produced by bacteria (toxoflavin),[4],remarkably decreased
